Test results reported in patent US12606561B2, “Substituted pyrazolo[1,5-a][1,3,5]triazines as CDK inhibitors” (QURIENT CO., LTD., priority 2018, dated 2026).

Experiments:
CDK5/p25 = target: T1, CDK5/p25 (Homo sapiens, UniProt Q00535); assay: Enzymatic assay for CDK5 (LANCE Ultra kinase assay, FRET based); format: biochemical; details: ATP at Km
T1 construct: purchased Invitrogen PR8543B
Method in brief: (§1)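 Inhibition was measured at ATP Km with 68 nM ULight-MBP peptide and CDK2/Cyclin A ([…]) or CDK5/p25 ([…]), using 8-dose 4-fold compound dilutions from DMSO. Kinase reaction ran 60 min at 23° C, then Eu anti-phospho-MBP plus EDTA were added for another 60 min before the fluorescence read.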

OVCAR-3 = OVCAR-3 viability assay (CellTiter-Glo, 72 hours); format: cell-based; details: Homo sapiens; OVCAR-3 cells
Method in brief: (§2)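 Each line was plated at its own density (1×10^4, 5×10^3 and 1×10^3 cells/well for MV4-11, OVCAR-3 and A2780 respectively) in RPMI-1640 with 10% FBS. Treatment with compound, 0.0015 uM to 10 uM and DMSO under 0.1%, lasted 72 h. Surviving cells were quantified by CellTiter-Glo.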

A2780 = A2780 viability assay (CellTiter-Glo, 72 hours); format: cell-based; details: Homo sapiens; A2780 cells
Method in brief: as §2

CDK7/Cyclin H/MNAT1 = target: T2, CDK7/Cyclin H/MNAT1 (Homo sapiens, UniProt P50613); assay: Enzymatic assay for CDK7 (LANCE Ultra kinase assay, FRET based); format: biochemical
T2 construct: purchased Invitrogen PR6749B
Method in brief: (§3)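 Kinase activity of each purified CDK/cyclin complex was followed in a FRET format where a Europium anti-phospho-antibody recognises phosphorylated ULight-labeled peptide. ATP was held at its Km.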

CDK2/Cyclin A = target: T3, CDK2/Cyclin A (Homo sapiens, UniProt P24941); assay: Enzymatic assay for CDK2 (LANCE Ultra kinase assay, FRET based); format: biochemical; details: ATP at Km
T3 construct: purchased Invitrogen PV6290
Method in brief: as §1

H460 = assay: Cellular H460 viability assay (CellTiter-Glo, 72 hours); format: cell-based; details: Homo sapiens, NCI-H460; H460 cells
Protocol: All cell lines were routinely tested for mycoplasma.
To effect of the CDK7 inhibitor to inhibit the growth of target cancer cells, viability assay were conducted a 72 hour time period. Briefly, the candidate cell line was plated in 96 well plate at the following density of cells respectively. 1×10^4 cells/well for MV4-11, 5×10^3 for H460 and OVCAR-3, and 1×10^3 for A2780. […] DMSO solvent without compound served as a control and final DMSO concentration lest than 0.1%. After 72 hours of incubation at 37° C., 5% CO2 incubator, cells were analyzed for the viability using the CellTiter-Glo Luminescent Cell Viability Assay (Promega, Cat #G7570). All viability assays were performed in duplicate and Luminescence was read using an Envision (Perkin Elmer, USA). Data was analyzed using XLfit software.

MV4-11 = assay: Cellular MV4-11 viability assay (CellTiter-Glo, 72 hours); format: cell-based; details: Homo sapiens; MV4-11 cells
Method in brief: as §2

CDK1/Cyclin B = target: T4, CDK1/Cyclin B (Homo sapiens, UniProt P06493); assay: Enzymatic assay for CDK1 (LANCE Ultra kinase assay, FRET based); format: biochemical; details: ATP at Km; read-out: CDK1 enzymatic activity IC50
T4 construct: purchased Invitrogen PR4768C
Method in brief: as §3

T2 sequence (P50613 whole entry): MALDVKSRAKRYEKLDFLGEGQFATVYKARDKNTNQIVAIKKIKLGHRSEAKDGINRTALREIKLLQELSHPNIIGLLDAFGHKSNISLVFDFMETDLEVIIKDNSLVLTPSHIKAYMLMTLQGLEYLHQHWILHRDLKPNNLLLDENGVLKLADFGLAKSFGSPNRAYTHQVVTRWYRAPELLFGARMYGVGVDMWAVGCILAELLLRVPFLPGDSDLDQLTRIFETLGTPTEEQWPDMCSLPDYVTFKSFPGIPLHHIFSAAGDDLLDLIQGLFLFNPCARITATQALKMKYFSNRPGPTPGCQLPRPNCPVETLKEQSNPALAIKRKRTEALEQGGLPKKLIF
T2 sequence (P51946 whole entry partner): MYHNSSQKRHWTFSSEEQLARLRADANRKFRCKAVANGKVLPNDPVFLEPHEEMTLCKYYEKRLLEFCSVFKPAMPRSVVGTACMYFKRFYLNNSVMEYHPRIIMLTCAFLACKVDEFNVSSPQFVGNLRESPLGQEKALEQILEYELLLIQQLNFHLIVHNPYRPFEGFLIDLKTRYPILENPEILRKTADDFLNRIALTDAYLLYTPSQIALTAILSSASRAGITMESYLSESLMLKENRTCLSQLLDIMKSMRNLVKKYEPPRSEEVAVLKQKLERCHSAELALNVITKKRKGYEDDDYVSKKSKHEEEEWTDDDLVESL
T2 sequence (P51948 whole entry partner): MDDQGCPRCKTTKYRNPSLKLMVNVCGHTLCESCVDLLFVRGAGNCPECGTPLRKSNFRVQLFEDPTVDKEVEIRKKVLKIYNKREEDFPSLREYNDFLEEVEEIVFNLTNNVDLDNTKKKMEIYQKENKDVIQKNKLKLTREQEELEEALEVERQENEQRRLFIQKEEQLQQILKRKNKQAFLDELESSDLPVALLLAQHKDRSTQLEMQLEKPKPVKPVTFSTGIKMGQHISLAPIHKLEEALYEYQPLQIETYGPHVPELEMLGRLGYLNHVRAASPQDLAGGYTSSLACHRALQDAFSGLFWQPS
T4 sequence (P06493 whole entry): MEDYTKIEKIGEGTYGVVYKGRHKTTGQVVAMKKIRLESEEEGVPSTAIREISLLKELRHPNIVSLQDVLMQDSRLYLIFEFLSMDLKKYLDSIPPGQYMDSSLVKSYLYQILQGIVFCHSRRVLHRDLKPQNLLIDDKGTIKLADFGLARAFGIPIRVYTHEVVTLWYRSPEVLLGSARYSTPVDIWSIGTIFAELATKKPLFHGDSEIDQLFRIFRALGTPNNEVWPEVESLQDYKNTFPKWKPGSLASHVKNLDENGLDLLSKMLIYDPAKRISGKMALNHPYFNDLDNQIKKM
T4 sequence (P14635 whole entry partner): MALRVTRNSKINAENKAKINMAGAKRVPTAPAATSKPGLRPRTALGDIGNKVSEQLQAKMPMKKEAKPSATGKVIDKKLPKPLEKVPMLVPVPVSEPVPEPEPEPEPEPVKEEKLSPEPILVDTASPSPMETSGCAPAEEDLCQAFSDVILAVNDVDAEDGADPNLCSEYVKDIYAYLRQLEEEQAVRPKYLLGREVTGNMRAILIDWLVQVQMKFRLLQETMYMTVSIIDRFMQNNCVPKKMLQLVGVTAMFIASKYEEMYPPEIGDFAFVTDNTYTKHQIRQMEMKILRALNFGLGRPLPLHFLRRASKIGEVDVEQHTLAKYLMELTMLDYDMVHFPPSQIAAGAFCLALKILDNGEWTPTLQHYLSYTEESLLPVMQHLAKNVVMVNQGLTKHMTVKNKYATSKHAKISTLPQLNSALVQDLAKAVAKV
T1 sequence (Q00535 whole entry): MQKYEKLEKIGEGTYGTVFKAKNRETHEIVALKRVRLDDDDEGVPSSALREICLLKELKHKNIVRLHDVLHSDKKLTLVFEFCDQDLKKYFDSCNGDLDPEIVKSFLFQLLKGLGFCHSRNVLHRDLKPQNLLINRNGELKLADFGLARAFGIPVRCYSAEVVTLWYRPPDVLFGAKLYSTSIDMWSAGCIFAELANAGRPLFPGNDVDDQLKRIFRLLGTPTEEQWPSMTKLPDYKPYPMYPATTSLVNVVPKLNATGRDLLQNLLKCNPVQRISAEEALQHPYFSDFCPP
T1 sequence (Q15078 99-307 partner limits assumed): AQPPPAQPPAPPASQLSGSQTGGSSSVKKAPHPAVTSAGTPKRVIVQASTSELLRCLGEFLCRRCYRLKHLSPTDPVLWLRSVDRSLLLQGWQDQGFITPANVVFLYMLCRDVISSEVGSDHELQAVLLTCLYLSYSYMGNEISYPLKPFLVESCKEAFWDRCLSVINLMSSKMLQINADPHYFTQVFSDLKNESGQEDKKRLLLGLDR

SMILES: CC(C)c1cnn2c(NCc3ccccc3-c3cc4c(NC(=O)/C=C/CN(C)C)cccc4[nH]3)nc(N3CCC(N)CC3)nc12 [Compound 3]
- IC50 (CDK5/p25): < 100 nM
- IC50 (OVCAR-3): < 1000 nM
- IC50 (A2780): < 1000 nM
- IC50 (CDK7/Cyclin H/MNAT1; ATP at Km): < 100 nM
- CDK1/CDK7: Selectivity of CDK7 inhibition over CDK1 inhibition (CDK7/Cyclin H/MNAT1; CDK7 over CDK1): C (C indicates [fold] ≤ 50)
- CDK2/CDK7: Selectivity of CDK7 inhibition over CDK2 inhibition (CDK7/Cyclin H/MNAT1; CDK7 over CDK2): C (C indicates [fold] ≤ 50)
- CDK5/CDK7: Selectivity of CDK7 inhibition over CDK5 inhibition (CDK7/Cyclin H/MNAT1; CDK7 over CDK5): C (C indicates [fold] ≤ 50)
- IC50 (CDK2/Cyclin A): 100 to 1000 nM
- IC50 (H460): < 1000 nM
- IC50 (MV4-11): < 1000 nM
- IC50 (CDK1/Cyclin B): 100 to 1000 nM
